# Reference: ChEMBL document CHEMBL1201862, “PubChem BioAssay data set” (2004)
#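 Where inhibition never reached the appropriate level, the endpoint shown equals the highest concentration tested. Otherwise, values were interpolated linearly from a five-concentration, 48-hour dose response in 96-well plates. Here, GI50 denotes the concentration required for 50% inhibition of growth.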 Activity calls are given as the source filed them. No stated cut-off is given here; in the data, active = GI50 up to about 1.1 µM and inactive = higher.
# What was measured:
# Assay in all cases: growth of human tumour cells (NCI), 48 h
# SF-539 = tested on: SF-539
# SR = tested on: SR
# K562 = tested on: K562
# COLO 205 = tested on: COLO 205
# NCI/ADR-RES = tested on: NCI/ADR-RES
# RPMI-8226 = tested on: RPMI-8226
# OVCAR-5 = tested on: OVCAR-5
# DU-145 = tested on: DU-145
# OVCAR-3 = tested on: OVCAR-3
# HOP-92 = tested on: HOP-92
# KM12 = tested on: KM12
# OVCAR-4 = tested on: OVCAR-4
# SW-620 = tested on: SW-620
# HCT-116 = tested on: HCT-116
# NCI-H226 = tested on: NCI-H226
# SN12C = tested on: SN12C
# UACC-257 = tested on: UACC-257
# SK-MEL-2 = tested on: SK-MEL-2
# MCF7 = tested on: MCF7
# CCRF-CEM = tested on: CCRF-CEM
Compound,GI50 (SF-539),GI50 (SR),GI50 (K562),GI50 (COLO 205),GI50 (NCI/ADR-RES),GI50 (RPMI-8226),GI50 (OVCAR-5),GI50 (DU-145),GI50 (OVCAR-3),GI50 (HOP-92),GI50 (KM12),GI50 (OVCAR-4),GI50 (SW-620),GI50 (HCT-116),GI50 (NCI-H226),GI50 (SN12C),GI50 (UACC-257),GI50 (SK-MEL-2),GI50 (MCF7),GI50 (CCRF-CEM)
c1cc2c(cc1C(N1CCNCC1)N1CCNCC1)OCO2,> 100 µM (inactive),9.64 µM (inactive),2.42 µM (inactive),> 100 µM (inactive),> 100 µM (inactive),40.9 µM (inactive),> 100 µM (inactive),> 100 µM (inactive),> 100 µM (inactive),> 100 µM (inactive),> 100 µM (inactive),> 100 µM (inactive),> 100 µM (inactive),> 100 µM (inactive),> 100 µM (inactive),> 100 µM (inactive),> 100 µM (inactive),> 100 µM (inactive),> 100 µM (inactive),
COc1ccc(OC)c([N+](=O)[O-])c1-c1nc2sc(C)cn2c1/C=N/N=C(N)N,38.4 µM (inactive),< 0.01 µM (active),2.49 µM (inactive),,> 100 µM (inactive),37.8 µM (inactive),51.4 µM (inactive),30.3 µM (inactive),28.9 µM (inactive),17.5 µM (inactive),20.5 µM (inactive),22.3 µM (inactive),29.9 µM (inactive),39.5 µM (inactive),36.1 µM (inactive),23.4 µM (inactive),18 µM (inactive),21.5 µM (inactive),15.1 µM (inactive),42.2 µM (inactive)
COc1cc(OC)cc(N(C)Cc2cnc3nc(N)nc(N)c3c2C)c1,0.385 µM (active),0.541 µM (active),,12.6 µM (inactive),5.65 µM (inactive),> 22 µM (inactive),0.757 µM (active),4.71 µM (inactive),9.66 µM (inactive),13.3 µM (inactive),3.85 µM (inactive),20.1 µM (inactive),0.585 µM (active),0.358 µM (active),> 41.1 µM (inactive),0.929 µM (active),1.56 µM (inactive),> 51.5 µM (inactive),0.92 µM (active),2.47 µM (inactive)
Cc1cc(N2CCOCC2)nc2ccc(Cc3ccc4nc(N5CCOCC5)cc(C)c4c3)cc12,24.2 µM (inactive),28.3 µM (inactive),27 µM (inactive),13.3 µM (inactive),41.8 µM (inactive),20.2 µM (inactive),> 100 µM (inactive),> 100 µM (inactive),33.3 µM (inactive),> 100 µM (inactive),> 100 µM (inactive),> 100 µM (inactive),35.9 µM (inactive),21.9 µM (inactive),33.3 µM (inactive),55.8 µM (inactive),25.6 µM (inactive),63.5 µM (inactive),37.8 µM (inactive),
Cc1cc(C)n(C(C)(C(=O)Cc2ccccc2)n2nc(C)cc2C)n1,> 100 µM (inactive),> 100 µM (inactive),> 100 µM (inactive),> 100 µM (inactive),> 100 µM (inactive),> 100 µM (inactive),> 100 µM (inactive),> 100 µM (inactive),> 100 µM (inactive),> 100 µM (inactive),> 100 µM (inactive),> 100 µM (inactive),> 100 µM (inactive),> 100 µM (inactive),> 100 µM (inactive),> 100 µM (inactive),,> 100 µM (inactive),> 100 µM (inactive),
N=C(N)N/N=C/c1ccc(O)c(C(=O)O)c1,> 100 µM (inactive),> 100 µM (inactive),> 100 µM (inactive),> 100 µM (inactive),> 100 µM (inactive),> 100 µM (inactive),> 100 µM (inactive),> 100 µM (inactive),> 100 µM (inactive),> 100 µM (inactive),> 100 µM (inactive),> 100 µM (inactive),> 100 µM (inactive),> 100 µM (inactive),> 100 µM (inactive),,> 100 µM (inactive),> 100 µM (inactive),> 100 µM (inactive),> 100 µM (inactive)
CN1CCN(/C(N)=C(\C#N)C(=O)Nc2ccccc2)CC1,> 100 µM (inactive),> 100 µM (inactive),> 100 µM (inactive),> 100 µM (inactive),> 100 µM (inactive),> 100 µM (inactive),> 100 µM (inactive),> 100 µM (inactive),> 100 µM (inactive),> 100 µM (inactive),> 100 µM (inactive),,> 100 µM (inactive),> 100 µM (inactive),> 100 µM (inactive),> 100 µM (inactive),> 100 µM (inactive),> 100 µM (inactive),> 100 µM (inactive),> 100 µM (inactive)
COC1=C(C)C(=O)C2=C(C1=O)C1C3CC4=C(C(=O)C(OC)=C(C)C4=O)C(CNC(=O)C(C)O)N3C(C#N)C(C2)N1C (configuration not stated),< 0.01 µM (active),< 0.01 µM (active),< 0.01 µM (active),< 0.01 µM (active),1.46 µM (inactive),< 0.01 µM (active),0.0269 µM (active),0.016 µM (active),< 0.01 µM (active),< 0.01 µM (active),0.0119 µM (active),0.026 µM (active),< 0.01 µM (active),0.0465 µM (active),0.0212 µM (active),< 0.01 µM (active),< 0.01 µM (active),< 0.01 µM (active),< 0.01 µM (active),< 0.01 µM (active)
COc1ccc(CCNC(=O)[C@H]2CCCC[C@@H]2CCO)cc1OC,> 100 µM (inactive),> 100 µM (inactive),> 100 µM (inactive),> 100 µM (inactive),> 100 µM (inactive),> 100 µM (inactive),> 100 µM (inactive),> 100 µM (inactive),> 100 µM (inactive),> 100 µM (inactive),> 100 µM (inactive),> 100 µM (inactive),> 100 µM (inactive),> 100 µM (inactive),> 100 µM (inactive),> 100 µM (inactive),> 100 µM (inactive),> 100 µM (inactive),> 100 µM (inactive),> 100 µM (inactive)
CNC(=S)N/N=C/c1cccc(C)n1,18.4 µM (inactive),> 41.9 µM (inactive),42.8 µM (inactive),38.2 µM (inactive),23.8 µM (inactive),> 59.8 µM (inactive),37.8 µM (inactive),28.8 µM (inactive),29.9 µM (inactive),55.8 µM (inactive),61.1 µM (inactive),> 59.7 µM (inactive),49.1 µM (inactive),31.6 µM (inactive),> 50.7 µM (inactive),26.4 µM (inactive),32.7 µM (inactive),49.1 µM (inactive),38.6 µM (inactive),23.4 µM (inactive)
